How the values were obtained:
Experiment in all cases: relative viability (nuclei count vs DMSO), 5 days (fraction); higher = more cells survive
[1] = system: A-427
Outline: (§1)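 A single step with final 0.05% Triton X-100, 1% formaldehyde and 1 ug/ml Hoechst fixed the cells and stained nuclei 5 days after treatment. Lung cancer cell lines in 1536-well plates had been treated by pin tool the day after seeding with one drug alone or a fixed anchor-drug dose plus five library-drug doses (not always all listed) in √10 steps, and nuclei were counted on 4× images. Relative viability is the ratio of nuclei in treated wells to nuclei in vehicle wells, taken as the median of duplicate plates.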

[2] = system: CAL-12T
Outline: as §1

[3] = system: COR-L 105
Outline: as §1

[4] = system: EPLC-272H
Outline: as §1

[5] = system: HCC-15
Outline: as §1

[6] = system: LC-2-ad
Outline: as §1

[7] = system: LCLC-97TM1
Outline: as §1

[8] = system: NCI-H1395
Outline: as §1

[9] = system: NCI-H1563
Outline: as §1

[10] = system: NCI-H1734
Outline: as §1

[11] = system: NCI-H1915
Outline: as §1

[12] = system: NCI-H1975
Outline: as §1

[13] = system: NCI-H2023
Outline: as §1

[14] = system: NCI-H2342
Outline: as §1

[15] = system: NCI-H2347
Outline: as §1

[16] = system: NCI-H2405
Outline: as §1

[17] = system: NCI-H520
Outline: as §1

[18] = system: NCI-H838
Outline: as §1

[19] = system: SW 1573
Outline: as §1

[20] = system: SW 900
Outline: as §1

[21] = system: UMC-11
Outline: as §1

Cc1cn(-c2cc(NC(=O)c3ccc(C)c(Nc4nccc(-c5cccnc5)n4)c3)cc(C(F)(F)F)c2)cn1 [Nilotinib] + COc1cc2c(Oc3ccc(NC(=O)C4(C(=O)Nc5ccc(F)cc5)CC4)cc3F)ccnc2cc1OCCCN1CCOCC1 [Foretinib] (partner 0.25 µM)
relative viability ([1]; first compound 0.001 µM): 0.945
relative viability ([1]; first compound 0.003162 µM): 1.09
relative viability ([1]; first compound 0.01 µM): 1.03
relative viability ([1]; first compound 0.03162 µM): 0.792
relative viability ([1]; first compound 0.1 µM): 0.476
relative viability ([2]; first compound 0.001 µM): 1.1
relative viability ([2]; first compound 0.003162 µM): 1.09
relative viability ([2]; first compound 0.01 µM): 1.17
relative viability ([2]; first compound 0.1 µM): 0.87
relative viability ([3]; first compound 0.001 µM): 1.08
relative viability ([3]; first compound 0.01 µM): 1.45
relative viability ([3]; first compound 0.03162 µM): 0.99
relative viability ([3]; first compound 0.1 µM): 0.99
relative viability ([4]; first compound 0.001 µM): 0.48
relative viability ([4]; first compound 0.003162 µM): 0.658
relative viability ([4]; first compound 0.01 µM): 0.688
relative viability ([4]; first compound 0.03162 µM): 0.435
relative viability ([4]; first compound 0.1 µM): 0.195
relative viability ([5]; first compound 0.001 µM): 0.975
relative viability ([5]; first compound 0.003162 µM): 1.25
relative viability ([5]; first compound 0.01 µM): 1.09
relative viability ([5]; first compound 0.03162 µM): 0.858
relative viability ([5]; first compound 0.1 µM): 0.754
relative viability ([6]; first compound 0.001 µM): 0.912
relative viability ([6]; first compound 0.003162 µM): 1.08
relative viability ([6]; first compound 0.01 µM): 0.963
relative viability ([6]; first compound 0.03162 µM): 0.827
relative viability ([6]; first compound 0.1 µM): 0.804
relative viability ([7]; first compound 0.001 µM): 0.902
relative viability ([7]; first compound 0.003162 µM): 1.05
relative viability ([7]; first compound 0.01 µM): 0.956
relative viability ([7]; first compound 0.03162 µM): 0.883
relative viability ([7]; first compound 0.1 µM): 0.885
relative viability ([8]; first compound 0.001 µM): 1.07
relative viability ([8]; first compound 0.003162 µM): 0.937
relative viability ([8]; first compound 0.01 µM): 0.953
relative viability ([8]; first compound 0.03162 µM): 0.853
relative viability ([8]; first compound 0.1 µM): 1.02
relative viability ([9]; first compound 0.001 µM): 0.933
relative viability ([9]; first compound 0.003162 µM): 0.896
relative viability ([9]; first compound 0.01 µM): 0.875
relative viability ([9]; first compound 0.03162 µM): 0.852
relative viability ([9]; first compound 0.1 µM): 0.891
relative viability ([10]; first compound 0.001 µM): 0.771
relative viability ([10]; first compound 0.01 µM): 0.895
relative viability ([10]; first compound 0.03162 µM): 0.646
relative viability ([10]; first compound 0.1 µM): 0.628
relative viability ([11]; first compound 0.001 µM): 0.966
relative viability ([11]; first compound 0.003162 µM): 1.21
relative viability ([11]; first compound 0.01 µM): 1.2
relative viability ([11]; first compound 0.03162 µM): 0.983
relative viability ([11]; first compound 0.1 µM): 0.952
relative viability ([12]; first compound 0.001 µM): 0.956
relative viability ([12]; first compound 0.003162 µM): 1.12
relative viability ([12]; first compound 0.01 µM): 1.02
relative viability ([12]; first compound 0.03162 µM): 0.74
relative viability ([12]; first compound 0.1 µM): 0.957
relative viability ([13]; first compound 0.001 µM): 0.839
relative viability ([13]; first compound 0.01 µM): 1.01
relative viability ([13]; first compound 0.03162 µM): 0.88
relative viability ([13]; first compound 0.1 µM): 0.875
relative viability ([14]; first compound 0.001 µM): 0.968
relative viability ([14]; first compound 0.003162 µM): 1.1
relative viability ([14]; first compound 0.03162 µM): 0.979
relative viability ([14]; first compound 0.1 µM): 1
relative viability ([15]; first compound 0.001 µM): 1.14
relative viability ([15]; first compound 0.003162 µM): 0.65
relative viability ([15]; first compound 0.01 µM): 0.6
relative viability ([15]; first compound 0.03162 µM): 0.77
relative viability ([15]; first compound 0.1 µM): 0.501
relative viability ([16]; first compound 0.001 µM): 1.05
relative viability ([16]; first compound 0.003162 µM): 1.05
relative viability ([16]; first compound 0.01 µM): 1.03
relative viability ([16]; first compound 0.03162 µM): 0.956
relative viability ([16]; first compound 0.1 µM): 0.98
relative viability ([17]; first compound 0.001 µM): 0.757
relative viability ([17]; first compound 0.003162 µM): 1.03
relative viability ([17]; first compound 0.01 µM): 0.91
relative viability ([17]; first compound 0.03162 µM): 0.684
relative viability ([17]; first compound 0.1 µM): 0.688
relative viability ([18]; first compound 0.001 µM): 1.03
relative viability ([18]; first compound 0.003162 µM): 1.16
relative viability ([18]; first compound 0.01 µM): 1.27
relative viability ([18]; first compound 0.03162 µM): 0.91
relative viability ([18]; first compound 0.1 µM): 0.949
relative viability ([19]; first compound 0.001 µM): 0.949
relative viability ([19]; first compound 0.003162 µM): 1.14
relative viability ([19]; first compound 0.01 µM): 1.14
relative viability ([19]; first compound 0.03162 µM): 0.753
relative viability ([19]; first compound 0.1 µM): 0.808
relative viability ([20]; first compound 0.001 µM): 0.664
relative viability ([20]; first compound 0.003162 µM): 0.814
relative viability ([20]; first compound 0.01 µM): 1.09
relative viability ([20]; first compound 0.03162 µM): 0.639
relative viability ([20]; first compound 0.1 µM): 0.902
relative viability ([21]; first compound 0.001 µM): 0.896
relative viability ([21]; first compound 0.003162 µM): 1.18
relative viability ([21]; first compound 0.01 µM): 1.23
relative viability ([21]; first compound 0.1 µM): 1.17
